Test results taken from PubChem BioAssay (NCI).
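48-hour exposure; five concentrations; linearly interpolated endpoints. TGI: concentration producing complete growth inhibition.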

Key:
Experiment in all cases: inhibition of tumour cell growth, NCI panel, 48 h
UACC-62 melanoma = test system: UACC-62 melanoma
SW-620 colon = test system: SW-620 colon
NCI/ADR-RES ovarian = test system: NCI/ADR-RES ovarian
IGROV1 ovarian = test system: IGROV1 ovarian
SF-268 CNS = test system: SF-268 CNS
PC-3 prostate = test system: PC-3 prostate
SF-295 CNS = test system: SF-295 CNS
MDA-N = test system: MDA-N
SF-539 CNS = test system: SF-539 CNS
T-47D breast = test system: T-47D breast
NCI-H522 lung = test system: NCI-H522 lung
OVCAR-5 ovarian = test system: OVCAR-5 ovarian
SK-MEL-28 melanoma = test system: SK-MEL-28 melanoma
OVCAR-3 ovarian = test system: OVCAR-3 ovarian

Row | Structure (SMILES) | TGI (UACC-62 melanoma) | TGI (SW-620 colon) | TGI (NCI/ADR-RES ovarian) | TGI (IGROV1 ovarian) | TGI (SF-268 CNS) | TGI (PC-3 prostate) | TGI (SF-295 CNS) | TGI (MDA-N) | TGI (SF-539 CNS) | TGI (T-47D breast) | TGI (NCI-H522 lung) | TGI (OVCAR-5 ovarian) | TGI (SK-MEL-28 melanoma) | TGI (OVCAR-3 ovarian)
1 | C=CC1(C)OC2(CCN(C(=O)OCC)CC2)OC1C (stereo not given) | > 100 µM | > 100 µM | > 100 µM | > 100 µM | > 100 µM | > 100 µM | > 100 µM | > 100 µM | > 100 µM | > 100 µM | > 100 µM | > 100 µM | > 100 µM | > 100 µM
2 | CC[C@@]1(CCC(=O)NCCc2c[nH]c3ccccc23)CCC(=O)N2CCc3c([nH]c4ccccc34)[C@H]21 | 65.3 µM | > 100 µM | 33.4 µM | 30 µM | 30 µM | > 100 µM | 60.6 µM | > 100 µM | 61.3 µM | > 100 µM | 18.8 µM | > 100 µM | > 100 µM | > 100 µM
3 | CCCC(=O)NC(Nc1ccc(S(=O)(=O)Nc2ccc(OC)nn2)cc1)(C(F)(F)F)C(F)(F)F | > 100 µM | > 100 µM | > 100 µM | > 100 µM | > 100 µM | > 100 µM | > 100 µM | > 100 µM | > 100 µM | > 100 µM | > 100 µM | > 100 µM | > 100 µM | > 100 µM
4 | CCOC(=O)C(Cc1ccc(N(CCCl)CCCl)cc1)NC(=O)CCCN1C(=O)CN=C(c2ccccc2)c2cc(Cl)ccc21 (stereo not given) | 5.95 µM | > 62.3 µM | > 87.1 µM | 16.9 µM | 71.5 µM | > 100 µM | > 100 µM | 19.1 µM | 16.3 µM | 11.2 µM | 13.2 µM | > 100 µM | 8.35 µM | 5.32 µM
5 | C1CN2CCNCCN(CCN1)CC2 | > 100 µM | > 100 µM | > 100 µM | > 100 µM | > 100 µM | > 100 µM | > 100 µM | > 100 µM | > 100 µM | > 100 µM | > 100 µM | > 100 µM | > 100 µM | > 100 µM
6 | COc1cc2c[n+](C)c3c(c2cc1OC)Cc1cc2c(cc1-3)OCO2 | > 100 µM | > 100 µM | > 100 µM | > 100 µM | > 100 µM | > 100 µM | > 100 µM | > 100 µM | > 100 µM | > 100 µM | > 100 µM | > 100 µM | > 100 µM | > 100 µM
7 | COc1ccc(/C=C/C(=O)c2ccc(OC(=O)/C=C/c3ccccc3)cc2)cc1 | > 63.7 µM | 98.9 µM | > 100 µM | > 77.7 µM | > 68.1 µM | > 100 µM | > 64 µM | > 100 µM | > 53.5 µM | 62.8 µM | 54.7 µM | > 100 µM | > 100 µM | > 100 µM
8 | CN(CCCn1ccnc1[N+](=O)[O-])CCCn1ccnc1[N+](=O)[O-] | > 100 µM | > 100 µM | > 100 µM | > 100 µM | > 100 µM | > 100 µM | > 100 µM | > 100 µM | > 100 µM | > 100 µM | > 100 µM | > 100 µM | > 100 µM | > 100 µM
9 | CC[C@H](C)[C@H](NC(=O)[C@@]1(O)[C@H](O)[C@]2(CC)C=CCN3CC[C@@]4(c5cc(Br)c(OC)cc5N(C)[C@@H]14)[C@@H]32)C(=O)OC | 28.9 µM | > 100 µM | > 100 µM | > 100 µM | > 100 µM | > 100 µM | > 100 µM | > 100 µM | 91.3 µM | > 100 µM | > 100 µM | > 100 µM | 38.7 µM | > 100 µM
10 | N#Cc1c(N2CCN(c3ccc([N+](=O)[O-])cc3)CC2)[n+](=O)c2ccccc2n1[O-] | > 100 µM | > 100 µM | > 100 µM | > 100 µM | 0.921 µM | > 100 µM | > 100 µM | > 100 µM | > 100 µM | > 100 µM | > 100 µM | > 100 µM | > 100 µM | > 100 µM
